In patent US20200397852A1, “DOSING REGIMENS FOR CELIAC DISEASE” (ImmusanT, Inc., priority 2017, published 2020):
Like-named read-outs stand apart in the source and are kept apart here. Where a SMILES comes first, the peptide text is derived from it. [ ]: non-standard residue; d: D form. pGlu = O=C1CC[C@@H](C(=O)O)N1

Key:
[1] = Plasma concentrations of Nexvax2 peptides (UHPLC-MS/MS), pre-treatment and 45 minutes post-treatment; format: in vivo, human; conditions: 45 minutes after treatment at levels above 300 μg; almost all participants; LLOQ 2 ng/mL
Method: • Weekly Gastrointestinal Symptom Rating Scale (GSRS) scores, and relative change in plasma cytokine levels 4 hours after 150 microgram and higher doses. Plasma concentrations pre- and 45 min post-dose, and villous height to crypt depth ratio (VH:CrD) in 2nd part duodenal biopsies were assessed in Cohort 3.
Pharmacodynamics assessments included a 38plex assay to profile cytokine and chemokine concentrations in plasma before and up to 10 hours post-treatment at visits corresponding to administration of Nexvax2 at the previously determined maximum tolerated dose (150 μg) and at each of the higher dose levels. The percentage of leukocytes in whole blood that corresponded to T cells or helper, cytotoxic, regulatory, or activated (CCR6-positive) T cell subsets was estimated using epigenetic cell counting before and after dosing during the treatment period at times indicated. Pharmacokinetics of the three constituent peptides in Nexvax2 were assessed pre-treatment and 45 minutes post-treatment in cohort 3 at visits corresponding to dose levels 300 μg and above. Serum levels of anti-Nexvax2 antibodies were also assessed in cohort 3 at times shown. A four-week observational period followed the end of treatment visit.
Pharmacokinetics of Nexvax2 peptides was summarised by dose level and presented as mean (95% CI) plasma concentrations; correlation coefficients were used to compare the plasma concentrations of the Nexvax2 peptides. […] Data from cohorts 1 and 2 were analysed separately according to the Nexvax2 starting dose levels of 3 μg or 30 μg. […]
Blood was collected 30 minutes before and 45 minutes after study drug administration. […] Charles River Laboratories Ashland, LLC (Ashland, Ohio, USA) measured the concentrations of NPL001, NPL002, and NPL003. […] Reconstituted sample extracts were analysed with a UHPLC-MS/MS assay using a Waters Acquity® UPLC Peptide BEH C18 Column, 300 Å, 1.7-μm particle-size, 2.1×50 mm column (Waters Corporation, Milford, Mass., USA). […]

[2] = pH 7
[3] = Solubility in normal saline at pH 7

CC(C)C[C@H](NC(=O)[C@@H]1CCC(=O)N1)C(=O)N[C@@H](CCC(N)=O)C(=O)N1CCC[C@H]1C(=O)N[C@@H](Cc1ccccc1)C(=O)N1CCC[C@H]1C(=O)N[C@@H](CCC(N)=O)C(=O)N1CCC[C@H]1C(=O)N[C@@H](CCC(=O)O)C(=O)N[C@@H](CC(C)C)C(=O)N1CCC[C@H]1C(=O)N[C@@H](Cc1ccc(O)cc1)C(=O)N1CCC[C@H]1C(=O)N[C@@H](CCC(N)=O)C(=O)N1CCC[C@H]1C(=O)N[C@@H](CCC(N)=O)C(N)=O [NPL001, (pE)LQPFPQPELPYPQPQ-NH2] ([pGlu]LQPFPQPELPYPQPQ-NH2)
Plasma concentration versus limit of quantification [1]: above the limit of quantification | solubility [2]: > 50 mg/mL

NC(=O)CC[C@H](NC(=O)[C@H](Cc1c[nH]c2ccccc12)NC(=O)[C@@H]1CCCN1C(=O)[C@H](Cc1ccccc1)NC(=O)[C@@H]1CCCN1C(=O)[C@H](CCC(N)=O)NC(=O)[C@H](CCC(=O)O)NC(=O)[C@@H]1CCCN1C(=O)[C@H](CCC(N)=O)NC(=O)[C@@H]1CCCN1C(=O)[C@H](Cc1ccccc1)NC(=O)[C@@H]1CCCN1C(=O)[C@H](CCC(N)=O)NC(=O)[C@@H]1CCC(=O)N1)C(=O)N1CCC[C@H]1C(N)=O [NPL002, (pE)QPFPQPEQPFPWQP-NH2] ([pGlu]QPFPQPEQPFPWQP-NH2)
Plasma concentration versus limit of quantification [1]: above the limit of quantification | solubility [3]: ≤ 25 mg/mL

CC[C@H](C)[C@H](NC(=O)[C@@H]1CCCN1C(=O)[C@H](CCC(N)=O)NC(=O)[C@H](CCC(=O)O)NC(=O)[C@@H]1CCCN1C(=O)[C@@H]1CCC(=O)N1)C(=O)N1CCC[C@H]1C(=O)N[C@@H](CCC(=O)O)C(=O)N[C@@H](CCC(N)=O)C(=O)N1CCC[C@H]1C(=O)N[C@@H](CCC(N)=O)C(=O)N1CCC[C@H]1C(=O)N[C@@H](Cc1ccc(O)cc1)C(=O)N1CCC[C@H]1C(=O)N[C@@H](CCC(N)=O)C(=O)N[C@@H](CCC(N)=O)C(N)=O [NPL003]
Plasma concentration versus limit of quantification [1]: above the limit of quantification | solubility [3]: > 50 mg/mL
